Laboratory results: patent US11247966B2, “4-(p-trifluoromethylbenzyl)-3-fluoro-1,2,4-triphenylamine derivative and pharmaceutical composition and applications thereof” (HEBEI MEDICAL UNIVERSITY, priority 2018, dated 2022)
Read-outs that look alike come from different tables or passages of the source.

Columns and labels:
KCNQ2/3 channels = KCNQ2/3 channels (Homo sapiens, UniProt O43525+O43526); experiment: High-throughput determination of Rb+ efflux by atomic absorption spectrometry; type: cell-based
KCNQ2/3 channels, sequence (O43525 whole entry): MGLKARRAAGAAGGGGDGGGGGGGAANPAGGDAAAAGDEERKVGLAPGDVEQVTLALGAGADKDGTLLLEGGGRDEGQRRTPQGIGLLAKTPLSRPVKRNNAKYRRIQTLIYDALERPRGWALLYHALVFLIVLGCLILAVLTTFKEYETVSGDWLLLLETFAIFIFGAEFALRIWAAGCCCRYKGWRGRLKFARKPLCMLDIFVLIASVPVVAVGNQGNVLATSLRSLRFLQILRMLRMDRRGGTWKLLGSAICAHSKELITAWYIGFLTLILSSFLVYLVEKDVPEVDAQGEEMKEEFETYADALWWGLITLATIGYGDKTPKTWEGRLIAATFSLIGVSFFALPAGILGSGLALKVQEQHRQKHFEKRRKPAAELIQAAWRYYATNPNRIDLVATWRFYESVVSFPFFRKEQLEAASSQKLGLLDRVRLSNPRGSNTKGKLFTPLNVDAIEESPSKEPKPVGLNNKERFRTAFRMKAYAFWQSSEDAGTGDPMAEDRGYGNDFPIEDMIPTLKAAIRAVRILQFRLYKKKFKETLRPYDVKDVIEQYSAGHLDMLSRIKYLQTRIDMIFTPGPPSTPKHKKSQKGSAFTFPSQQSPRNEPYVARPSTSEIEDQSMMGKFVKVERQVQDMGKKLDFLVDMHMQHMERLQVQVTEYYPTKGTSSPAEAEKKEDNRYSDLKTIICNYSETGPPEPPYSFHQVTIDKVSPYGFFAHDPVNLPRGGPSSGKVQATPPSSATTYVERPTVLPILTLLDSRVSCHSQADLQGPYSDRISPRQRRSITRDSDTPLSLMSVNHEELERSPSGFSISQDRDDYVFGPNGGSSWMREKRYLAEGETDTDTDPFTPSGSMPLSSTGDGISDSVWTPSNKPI
KCNQ2/3 channels, sequence (O43526 whole entry): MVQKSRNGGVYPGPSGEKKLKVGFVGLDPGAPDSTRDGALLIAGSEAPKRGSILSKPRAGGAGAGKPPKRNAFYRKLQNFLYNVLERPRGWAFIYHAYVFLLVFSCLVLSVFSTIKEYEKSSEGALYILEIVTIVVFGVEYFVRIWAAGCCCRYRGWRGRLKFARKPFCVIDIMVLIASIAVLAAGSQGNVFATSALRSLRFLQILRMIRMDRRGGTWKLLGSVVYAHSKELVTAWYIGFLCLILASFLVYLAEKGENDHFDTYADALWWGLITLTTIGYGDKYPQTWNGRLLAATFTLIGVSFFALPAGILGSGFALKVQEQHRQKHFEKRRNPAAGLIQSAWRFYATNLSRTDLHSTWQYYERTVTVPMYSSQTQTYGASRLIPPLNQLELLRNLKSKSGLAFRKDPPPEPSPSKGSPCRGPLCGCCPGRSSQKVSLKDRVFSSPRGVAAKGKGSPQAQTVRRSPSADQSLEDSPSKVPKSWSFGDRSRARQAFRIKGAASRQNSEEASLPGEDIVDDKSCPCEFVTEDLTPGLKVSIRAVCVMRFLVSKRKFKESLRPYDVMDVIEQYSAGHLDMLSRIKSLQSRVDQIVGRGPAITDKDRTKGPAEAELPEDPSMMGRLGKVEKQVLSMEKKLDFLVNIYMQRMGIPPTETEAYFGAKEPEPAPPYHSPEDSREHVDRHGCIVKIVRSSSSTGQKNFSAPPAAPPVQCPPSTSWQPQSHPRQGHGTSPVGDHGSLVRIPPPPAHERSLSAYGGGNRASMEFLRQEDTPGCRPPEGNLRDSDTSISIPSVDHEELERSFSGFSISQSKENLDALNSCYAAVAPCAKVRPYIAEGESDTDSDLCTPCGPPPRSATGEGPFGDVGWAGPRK
Excerpt: The determination technique of Rb^+ efflux by AAS is safer and faster in high-throughput screening of potassium channel regulators, and has the characteristics of directly reflecting the activity of ion channels and the regulatory role of regulators. Rb has a similar atomic size to K, and the potassium channel is permeable to Rb^+, the opening or closing of the potassium channel can be determined by measuring the concentration of Rb^+ efflux. Rb has a specific atomic absorption at 780 nm and the Rb^+ concentration can be measured by AAS. Therefore, AAS can be used to screen potassium channel openers or shutters by the high-throughput determination technique for measuring Rb^+ efflux.
Chinese hamster ovary (CHO) cells with stable KCNQ2/3 channels in logarithmic growth phase are inoculated on a 96-well plate at a density of 2×10^4 cells/well. Three wells are provided for each concentration. Solvent control wells having the corresponding concentrations are arranged. After adherent growth overnight, the culture medium is discarded, and 200 μl of a loading buffer containing RbCL is added, and culturing is performed at 37° C. and under 5% CO2 for 3 h. The loading buffer is then discarded and washing is performed 3 times with a wash buffer. To screen the channel opener, the compound to be tested is diluted in a depolarizing buffer and 200 μl of the above solution is added into the cells and reacted for 10 min. After incubation for 10 min, 200 μl of a supernatant is carefully transferred into another 96-well plate. Rb^+ atomic absorption at 780 nm is determined by an ICR8000 atomic absorption spectrometer. The relative efflux is calculated according to the formula Fsupern=(Rb_supern/cpd/Rb_supern/d)*100.

Kunming mice = experiment: Maximum electroshock seizure (MES) experimental model; type: in vivo
Experimental: Methods: Kunming mice, male, 18-22 g, are placed in the experimental environment 3 days before the experiment to make them adapt to the environment, eat and drink freely; the room temperature is 23-25° C.
The experimental instrument is YLS-9A physiological and pharmacological electronic stimulator: continuous wave output; wave width of 20 ms; gap of 10 ms; wave number of 70; voltage of 60 V; current limit of 3.5 mA.
Methods: 24 hours before the formal experiment, the mice are screened, the stimulator is set according to the above parameters, the mouse ears are clamped with crocodile clip of the stimulator, and the stimulation is started. The ankylosis of the hind limbs of the mice is taken as a positive index to screen the qualified (positive) mice and eliminate the substandard mice. In the formal experiment, the grouping is randomly performed with 10 mice in each group according to the experimental scheme, and the electrical stimulation is carried out. If no ankylosis is found in the hind limbs, it is effective (positive).

KM mice = experiment: Pentylenetetrazole (PTZ)-induced epilepsy model; type: in vivo; conditions: PTZ 85 mg/kg s.c.
Experimental: Experimental conditions: room temperature 25±1° C.
Experimental animals: KM mice, half male and half female, weighing 18-25 g, 10-12 mice in each group, adapt to the environment for 3 days and eat and drink freely.
Methods: the day before the experiment, each animal is labeled to ensure that the determination time of each animal after administration is consistent. The experimental animals fast for more than 8 h the night before the experiment. […] After the drugs are absorbed, the model is made by the subcutaneous administration of 85 mg/kg PTZ (administration volume of 0.1 ml/10 g) body weight to the neck and back. After PTZ administration, time is counted and the model is put into the transparent observation box in time to keep the environment quiet. The seizure threshold and the number of non-seizure animals are recorded. […] The seizure threshold and the rate of non-death mice (i.e. protective rate) within 12 h after constructing the mold are compared.

KCNQ2/3 (Kv7.2/7.3) = KCNQ2/3 (Kv7.2/7.3) (Homo sapiens, UniProt O43525+O43526); experiment: Electrophysiological patch clamp determination, KCNQ2/3; type: cell-based; conditions: whole-cell patch clamp, CHO cells; read-out: EC50 value, activation of KCNQ2/3 (Kv7.2/7.3)
Experimental: (§1) CHO cells culture: CHO cells with stable KCNQ channels are cultured in a DMEM culture solution containing 10% fetal bovine serum, 100 U/ml penicillin and streptomycin, and then digested and passaged by pancreatin. The cells are placed on a 12 mm round cover glass and cultured in a 24-well plate.
(§2) Cell membrane current record by patch clamp technique: HEKA-EPC10 is used as a patch clamp amplifier. Amphotericin B (final concentration of 0.1-0.2 mg/ml) is used in the electrode to record the perforation patch clamp. After polishing, the microelectrode is filled with an electrode inner fluid, and the resistance value is controlled to be 2-4 MΩ. The electrode inner fluid used for recording CHO cells is (mM): KCl 160, HEPES 5, MgCl2 3, CaCl2 1 and EGTA 3, and the pH is adjusted to 7.4 with KOH. The components of the extracellular fluid are (mM): NaCl 160, KCl 2.5, HEPES 10, glucose 8, MgCl2 1 and CaCl2 5. After forming a giant resistance seal between the microelectrode and the cell membrane, the current is recorded under voltage clamping.

KCNQ4 (Kv7.4) = KCNQ4 (Kv7.4) (Homo sapiens, UniProt P56696); experiment: Electrophysiological patch clamp determination, KCNQ4; type: cell-based; conditions: CHO cells
Experimental: as §1, §2

[1] = Rb+ efflux by AAS, CHO cells with stable KCNQ2/3 channels, read-out: KCNQ2/3 EC50
[2] = intraperitoneal 1 mg/kg body weight

SMILES | melting point | EC50 (KCNQ2/3 channels; [1]) | further results
Nc1c(NC(=O)CCN2CCCCC2)ccc(NCc2ccc(C(F)(F)F)cc2)c1F [Compound 5, N-(2-amino-3-fluoro-4-(4-trifluoromethylbenzylamino)-phenyl)-3-piperidinyl-1-propionamide] | 202.1 to 203.5 °C | 750 ± 120 nM | 
Nc1c(NC(=O)CC2CCCC2)ccc(NCc2ccc(C(F)(F)F)cc2)c1F [Compound 4, N-(2-amino-3-fluoro-4-(4-trifluoromethylbenzylamino)-phenyl)-cyclopentyl Acetamide] | 196.9 to 197.5 °C | 580 ± 130 nM | 
Nc1c(NC(=O)C2CCCC2)ccc(NCc2ccc(C(F)(F)F)cc2)c1F [Compound 3, N-(2-amino-3-fluoro-4-(4-trifluoromethylbenzylamino)-phenyl)-cyclopentyl Formamide] | 222.9 to 223.5 °C | 2830 ± 210 nM | 
CCOC(=O)Nc1ccc(NCc2ccc(F)cc2)cc1N [RTG, Retigabine, reference compound] |  |  | effective rate (no ankylosis of hind limbs) (Kunming mice; intraperitoneal 10 mg/kg body weight): 80%; protective rate (non-death mice within 12 h) (KM mice; 15 mg/kg body weight i.p.): 50%; seizure threshold (KM mice; 15 mg/kg body weight i.p.): 858.17 ± 528.48 s; EC50 (KCNQ2/3 channels): 860 ± 180 nM
Nc1c(NC(=O)CCc2ccco2)ccc(NCc2ccc(C(F)(F)F)cc2)c1F [Compound 6, N-(2-amino-3-fluoro-4-(4-trifluoromethylbenzylamino)-phenyl)-3-furanyl-2-propanamide] | 212.2 to 213.5 °C | 3580 ± 730 nM | 
Nc1c(NC(=O)CCCc2ccccc2)ccc(NCc2ccc(C(F)(F)F)cc2)c1F [Compound 7] | 198.5 to 199.5 °C | 5260 ± 820 nM | 
Nc1c(NC(=O)CCC2CCCC2)ccc(NCc2ccc(C(F)(F)F)cc2)c1F [Compound 1, N-(2-amino-3-fluoro-4-(4-trifluoromethylbenzylamino)-phenyl)-cyclopentyl propionamide] |  | 150 ± 40 nM | effective rate (no ankylosis of hind limbs) (Kunming mice; [2]): 100%; EC50 (KCNQ2/3 (Kv7.2/7.3)): 380 ± 100 nM; opening activity to KCNQ4 (Kv7.4) (KCNQ4 (Kv7.4)): relatively small; protective rate (non-death mice within 12 h) (KM mice; 3 mg/kg body weight i.p.): 100%; seizure threshold (KM mice; 3 mg/kg body weight i.p.): 867.21 ± 152.51 s; protective rate (non-death mice within 12 h) (KM mice; 5 mg/kg body weight i.p.): 100%; seizure threshold (KM mice; 5 mg/kg body weight i.p.): 1185.96 ± 134.28 s
CC(C)(C)CC(=O)Nc1ccc(NCc2ccc(C(F)(F)F)cc2)c(F)c1N [Compound 2, N-(2-amino-3-fluoro-4-(4-trifluoromethylbenzylamino)-phenyl)-3,3-dimethyl Butyramide] |  | 210 ± 80 nM | effective rate (no ankylosis of hind limbs) (Kunming mice; [2]): 90%
